Source: patent US8450317B2, “CXCR3 receptor antagonists” (Boehringer Ingelheim International GmbH, priority 2009, dated 2013)

Biological target: CXCR3 (Macaca fascicularis, UniProt A0A2K5UV19)
Assay: functional cellular assay measuring calcium flux in CXCR3 transfected cells (block of CXCR3/IP-10 interaction)
Assay type: cell-based, Cyno
Conditions: IP-10 induced intracellular calcium flux; Cyno-CHO cells stably expressing recombinant CXCR3 and G-alpha-16; IP-10 at EC80; read-out: IC50
Summary of the method: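 Inhibition of IP-10-induced calcium flux at 10 microM final compound, 15 min room-temperature preincubation, with IP-10 at EC80. Cells: CHO stably transfected with cynomolgus CXCR3 plus G-alpha-16, dye-loaded (Ca-4, 2 mM probenecid, HBSS/HEPES pH 7.4) 1 h at 37° C.; fluorescence ex 480/em 540 nm.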

Chain of CXCR3 (A0A2K5UV19 entry or part of it): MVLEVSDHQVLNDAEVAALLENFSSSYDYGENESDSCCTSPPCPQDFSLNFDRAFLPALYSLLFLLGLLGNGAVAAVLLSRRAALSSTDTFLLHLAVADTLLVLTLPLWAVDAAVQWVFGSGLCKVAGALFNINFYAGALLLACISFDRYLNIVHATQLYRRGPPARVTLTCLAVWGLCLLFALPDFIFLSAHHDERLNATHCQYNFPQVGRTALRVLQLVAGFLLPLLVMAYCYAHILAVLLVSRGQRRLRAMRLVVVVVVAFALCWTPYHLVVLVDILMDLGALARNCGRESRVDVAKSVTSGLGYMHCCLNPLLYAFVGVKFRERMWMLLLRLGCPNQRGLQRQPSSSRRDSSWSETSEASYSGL

| SMILES | IC50 [nM] |
| --- | --- |
| Cc1cc(C)n(CC(=O)N2CCN(c3ccc(F)cc3-c3cnc(N4CCOCC4)nc3)CC2)n1 [2-(3,5-Dimethyl-pyrazol-1-yl)-1-{4-[4-fluoro-2-(2-morpholin-4-yl-pyrimidin-5-yl)-phenyl]-piperazin-1-yl}-ethanone] | 5 |
| Cc1cc(C)n(CC(=O)N2CCN(c3ccccc3-c3ccc(C#N)nc3)CC2)n1 [5-(2-{4-[2-(3,5-Dimethyl-pyrazol-1-yl)-acetyl]-piperazin-1-yl}-phenyl)-pyridine-2-carbonitrile] | 18 |
| Cc1cc(C)n(CC(=O)N2CCN(c3ccccc3-c3cnc(N4CC(C)CC(C)C4)nc3)CC2)n1 (stereo not drawn) [1-(4-{2-[2-(3,5-Dimethyl-piperidin-1-yl)-pyrimidin-5-yl]-phenyl}-piperazin-1-yl)-2-(3,5-dimethyl-pyrazol-1-yl)-ethanone] | 14 |
| CNc1ncc(-c2cc(Cl)ccc2N2CCN(C(=O)Cn3ccc4cccnc43)CC2)cn1 [1-{4-[4-Chloro-2-(2-methylamino-pyrimidin-5-yl)-phenyl]-piperazin-1-yl}-2-pyrrolo[2,3-b]pyridin-1-yl-ethanone] | 6 |
| Cc1cc(C)n(CC(=O)N2CCN(c3ccccc3-c3cnc(N4CCCC(F)C4)nc3)CC2)n1 (stereo not drawn) [2-(3,5-Dimethyl-pyrazol-1-yl)-1-(4-{2-[2-(3-fluoro-piperidin-1-yl)-pyrimidin-5-yl]-phenyl}-piperazin-1-yl)-ethanone] | 8 |
| Cc1cc(C)n(CC(=O)N2CCN(c3ccccc3-c3cnc(N4CC(C)OC(C)C4)nc3)CC2)n1 (stereo not drawn) [1-(4-{2-[2-(2,6-Dimethyl-morpholin-4-yl)-pyrimidin-5-yl]-phenyl}-piperazin-1-yl)-2-(3,5-dimethyl-pyrazol-1-yl)-ethanone] | 6 |
| CC1CN(c2ccccc2-c2cnc(N3CCC(S(C)(=O)=O)CC3)nc2)CCN1C(=O)Cn1ccc2ccncc21 (stereo not drawn) [1-[2-methyl-4-(2-{2-[4-(methylsulfonyl)piperidin-1-yl]pyrimidin-5-yl}phenyl)piperazin-1-yl]-2-(1H-pyrrolo[2,3-c]pyridin-1-yl)ethanone] | 8 |
| COc1ncc(-c2cc(F)ccc2N2CCN(C(=O)Cn3cnc4cccnc43)CC2)cn1 [1-{4-[4-fluoro-2-(2-methoxypyrimidin-5-yl)phenyl]piperazin-1-yl}-2-(3H-imidazo[4,5-b]pyridin-3-yl)ethanone] | 53 |
| Cc1cc(C(F)(F)F)nn1CC(=O)N1CCN(c2ccccc2-c2ccc(C#N)nc2)CC1 [5-(2-{4-[2-(5-Methyl-3-trifluoromethyl-pyrazol-1-yl)-acetyl]-piperazin-1-yl}-phenyl)-pyridine-2-carbonitrile] | 71 |
| C[C@H]1CN(c2ccc(F)cc2C(=O)Nc2nc3c(s2)CN(C)CC3)CCN1C(=O)Cn1c(=O)[nH]c2ccccc21 [5-fluoro-2-{(3S)-3-methyl-4-[(2-oxo-2,3-dihydro-1H-benzimidazol-1-yl)acetyl]piperazin-1-yl}-N-(5-methyl-4,5,6,7-tetrahydro[1,3]thiazolo[5,4-c]pyridin-2-yl)benzamide] | 12 |
| CN(C)c1ncc(-c2ccccc2N2CCN(C(=O)Cn3ccc4cccnc43)CC2)cn1 [1-{4-[2-(2-Dimethylamino-pyrimidin-5-yl)-phenyl]-piperazin-1-yl}-2-pyrrolo[2,3-b]pyridin-1-yl-ethanone] | 6 |
| Cc1cc(C)n(CC(=O)N2CCN(c3ccc(Cl)cc3-c3cnc(N4CCOCC4)nc3)CC2)n1 [1-{4-[4-Chloro-2-(2-morpholin-4-yl-pyrimidin-5-yl)-phenyl]-piperazin-1-yl}-2-(3,5-dimethyl-pyrazol-1-yl)-ethanone] | 11 |
| CC1CN(c2ccccc2-c2cnc(N3CCC(S(C)(=O)=O)CC3)nc2)CCN1C(=O)Cn1c(=O)[nH]c2ccccc21 (stereo not drawn) [1-{2-[2-methyl-4-(2-{2-[4-(methylsulfonyl)piperidin-1-yl]pyrimidin-5-yl}phenyl)piperazin-1-yl]-2-oxoethyl}-1,3-dihydro-2H-benzimidazol-2-one] | 11 |
| CC1CN(c2ccc(C(F)(F)F)cc2-c2cnc(N3CCC(O)CC3)nc2)CCN1C(=O)CN1CCCCC1=O (stereo not drawn) [1-[2-(4-{2-[2-(4-hydroxypiperidin-1-yl)pyrimidin-5-yl]-4-(trifluoromethyl)phenyl}-2-methylpiperazin-1-yl)-2-oxoethyl]piperidin-2-one] | 11 |
| CSc1ncc(-c2ccccc2N2CCN(C(=O)Cn3nc(C)cc3C)CC2)cn1 [2-(3,5-Dimethyl-pyrazol-1-yl)-1-{4-[2-(2-methylsulfanyl-pyrimidin-5-yl)-phenyl]-piperazin-1-yl}-ethanone] | 10 |
| O=C(Cn1ccc2ccncc21)N1CCN(c2ccc(F)cc2-c2cnc(N3CCCC3)nc2)CC1 [1-(4-{4-fluoro-2-[2-(pyrrolidin-1-yl)pyrimidin-5-yl]phenyl}piperazin-1-yl)-2-(1H-pyrrolo[2,3-c]pyridin-1-yl)ethanone] | 14 |
| CC1CN(c2ccccc2-c2cnc(S(C)(=O)=O)nc2)CCN1C(=O)CN1Cc2ccccc2C1=O (stereo not drawn) [2-[2-(2-methyl-4-{2-[2-(methylsulfonyl)pyrimidin-5-yl]phenyl}piperazin-1-yl)-2-oxoethyl]-2,3-dihydro-1H-isoindol-1-one] | 293 |
| CC1CN(c2ccc(F)cc2-c2cnc(N3CCC(S(C)(=O)=O)CC3)nc2)CCN1C(=O)Cn1cnc2cccnc21 (stereo not drawn) [1-[4-(4-fluoro-2-{2-[4-(methylsulfonyl)piperidin-1-yl]pyrimidin-5-yl}phenyl)-2-methylpiperazin-1-yl]-2-(3H-imidazo[4,5-b]pyridin-3-yl)ethanone] | 13 |
| CC1CN(c2ccc(F)cc2-c2cnc(N3CCC(S(C)(=O)=O)CC3)nc2)CCN1C(=O)Cn1ccc2ccncc21 (stereo not drawn) [1-[4-(4-fluoro-2-{2-[4-(methylsulfonyl)piperidin-1-yl]pyrimidin-5-yl}phenyl)-2-methylpiperazin-1-yl]-2-(1H-pyrrolo[2,3-c]pyridin-1-yl)ethanone] | 8 |
| Cc1cc(C)n(CC(=O)N2CCN(c3ccccc3-c3cnc(N4C[C@H]5CC[C@@H]4C5)nc3)CC2)n1 [1-(4-{2-[(1R,4S)-2-(2-Aza-bicyclo[2.2.1]hept-2-yl)-pyrimidin-5-yl]-phenyl}-piperazin-1-yl)-2-(3,5-dimethyl-pyrazol-1-yl)-ethanone] | 4 |
| CS(=O)(=O)C1CCN(c2ncc(-c3cc(F)ccc3N3CCN(C(=O)Cn4c(=O)[nH]c5ccccc54)CC3)cn2)CC1 [1-{2-[4-(4-fluoro-2-{2-[4-(methylsulfonyl)piperidin-1-yl]pyrimidin-5-yl}phenyl)piperazin-1-yl]-2-oxoethyl}-1,3-dihydro-2H-benzimidazol-2-one] | 7 |
| O=C(CN1Cc2ccccc2C1=O)N1CCN(c2ccc(F)cc2-c2cnc(N3CCCC3)nc2)CC1 [2-[2-(4-{4-fluoro-2-[2-(pyrrolidin-1-yl)pyrimidin-5-yl]phenyl}piperazin-1-yl)-2-oxoethyl]-2,3-dihydro-1H-isoindol-1-one] | 15 |
| O=C(Cn1ccc2cccnc21)N1CCN(c2ccccc2N2Cc3ccccc3C2=O)CC1 [2-{2-[4-(2-Pyrrolo[2,3-b]pyridin-1-yl-acetyl)-piperazin-1-yl]-phenyl}-2,3-dihydro-isoindol-1-one] | 48 |
| Cc1cc(C)n(CC(=O)N2CCN(c3ccc(F)cc3-c3cnc(S(C)(=O)=O)nc3)CC2C)n1 (stereo not drawn) [2-(3,5-dimethyl-1H-pyrazol-1-yl)-1-(4-{4-fluoro-2-[2-(methylsulfonyl)pyrimidin-5-yl]phenyl}-2-methylpiperazin-1-yl)ethanone] | 157 |
